This note sets out measurements from patent publication US9309242B2, “Substituted pyrido[2,3-b]pyrazines as FGFR kinase inhibitors” (priority 2011, dated 2016).

In general, melting point refers to the temperature of the solid-liquid transition.

Structures are written as SMILES. Read-outs that look alike come from different tables or passages of the source.

The target of one data set is FGFR2 (h) (Homo sapiens, UniProt P21802). The experiment in a line: FGFR2 (enzymatic assay), TR-FRET. The format is biochemical. As to conditions: enzymatic assay, read-out: FGFR 2 pIC50 (converted). The method, boiled down:
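Compound (1% DMSO final) was combined with FGFR2 (h), 150 ng/ml, plus 0.4 μM ATP and 500 nM biotin-Flt3 in Mn2+-containing HEPES buffer at pH 7.5.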

The subject of data set [1] is Ba/F3-FGFR3-transfected cells. Description: Ba/F3-FGFR3 (plus IL3) cellular proliferation assay, counterscreen with 10 ng/ml murine IL3. In kind it is cell-based. The conditions noted are these: read-out: BAF3-FGFR3 (PLUS IL3) pIC50 (converted). The gist of the method: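 Ba/F3 cells transfected with FGFR3 were seeded at 20000 cells/well in phenol red-free RPMI-1640 with 10% FBS over compound in DMSO and kept 24 hours at 37° C, 5% CO2. Alamar Blue (resazurin) was then added for 4 hours and fluorescence read at ex 540/em 590 nm. The counterscreen repeated this with 10 ng/ml murine IL3.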
In general terms: The purpose of a counterscreen is to sort out artefacts and off-target activity.

The target in data set [2] is T1, Ba/F3-KDR-transfected cells (Homo sapiens, UniProt P35968).
T1 construct: BAF3-KDR (MIN IL3) pIC50; other: minus IL3
T1 sequence (P35968 whole entry, change not shown): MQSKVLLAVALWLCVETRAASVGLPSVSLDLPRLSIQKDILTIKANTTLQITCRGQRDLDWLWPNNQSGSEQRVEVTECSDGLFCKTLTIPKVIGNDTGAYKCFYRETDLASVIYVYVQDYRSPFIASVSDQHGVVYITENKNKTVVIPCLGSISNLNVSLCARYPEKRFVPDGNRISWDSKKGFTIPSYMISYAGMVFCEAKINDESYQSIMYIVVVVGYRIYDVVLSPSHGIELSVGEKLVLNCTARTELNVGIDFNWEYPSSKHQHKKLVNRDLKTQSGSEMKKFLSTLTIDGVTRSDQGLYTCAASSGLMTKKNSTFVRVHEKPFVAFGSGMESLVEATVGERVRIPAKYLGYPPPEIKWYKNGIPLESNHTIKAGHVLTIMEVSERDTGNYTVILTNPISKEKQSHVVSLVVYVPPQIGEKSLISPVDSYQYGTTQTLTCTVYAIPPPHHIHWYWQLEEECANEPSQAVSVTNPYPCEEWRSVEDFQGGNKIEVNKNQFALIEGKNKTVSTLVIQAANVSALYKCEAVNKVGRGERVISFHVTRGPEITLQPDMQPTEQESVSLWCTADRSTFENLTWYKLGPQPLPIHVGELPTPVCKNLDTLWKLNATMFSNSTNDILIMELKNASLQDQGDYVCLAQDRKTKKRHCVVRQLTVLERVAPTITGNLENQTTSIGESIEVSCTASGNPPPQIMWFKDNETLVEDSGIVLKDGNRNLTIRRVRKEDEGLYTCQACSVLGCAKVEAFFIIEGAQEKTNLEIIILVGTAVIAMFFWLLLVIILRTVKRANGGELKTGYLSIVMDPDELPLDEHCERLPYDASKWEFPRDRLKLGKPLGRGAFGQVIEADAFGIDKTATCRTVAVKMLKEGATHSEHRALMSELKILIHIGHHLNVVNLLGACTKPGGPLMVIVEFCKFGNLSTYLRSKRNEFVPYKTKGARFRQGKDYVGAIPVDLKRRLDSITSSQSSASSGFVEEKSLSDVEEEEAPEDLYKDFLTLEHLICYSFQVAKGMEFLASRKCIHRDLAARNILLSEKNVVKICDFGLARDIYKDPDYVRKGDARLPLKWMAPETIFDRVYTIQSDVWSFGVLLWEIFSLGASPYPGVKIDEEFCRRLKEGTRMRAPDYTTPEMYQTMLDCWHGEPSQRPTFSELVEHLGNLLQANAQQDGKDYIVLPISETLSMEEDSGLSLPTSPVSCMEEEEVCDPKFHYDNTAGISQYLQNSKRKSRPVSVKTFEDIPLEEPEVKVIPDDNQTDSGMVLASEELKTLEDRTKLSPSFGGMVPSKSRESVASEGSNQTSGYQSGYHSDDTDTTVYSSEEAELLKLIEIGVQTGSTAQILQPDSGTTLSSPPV
The experiment in a line: Ba/F3-KDR (minus IL3) cellular proliferation assay, Alamar Blue. In kind it is cell-based. The gist of the method: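 Ba/F3-KDR-transfected cells, 20000 per well in phenol red free RPMI-1640 with 10% FBS, exposed to compound 24 hours at 37° C, 5% CO2; Alamar Blue then added for 4 hours and fluorescence read (ex. 540 nm, em. 590 nm). Plus-IL3 counterscreen run identically with 10 ng/ml murine IL3.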
(In general: Resazurin is reduced to fluorescent resorufin, in cell work by metabolically active cells.)

Data set [3] concerns Ba/F3-Flt3-transfected cells. The experiment in a line: Ba/F3-Flt3 (plus IL3) cellular proliferation assay, counterscreen with 10 ng/ml murine IL3. The format is cell-based. The conditions noted are these: read-out: BAF3_FLT3 (PLUS IL3) pIC50 (converted). How it is done: Ba/F3-Flt3 (Minus IL3 or Plus IL3) (Cellular Proliferation Assay)
In a 384 well plate, 100 nl of compound dilution in DMSO was sprayed before adding 50 μl cell culture medium (phenol red free RPMI-1640, 10% FBS, 2 mM L-Glutamine and 50 μg/ml Gentamycin) containing 20000 cells per well of Ba/F3-Flt3-transfected cells. Cells were put in an incubator at 37° C. and 5% CO2. After 24 hours, 10 μl of Alamar Blue solution (0.5 mM K3Fe(CN)6, 0.5 mM K4Fe(CN)6, 0.15 mM Resazurin and 100 mM Phosphate Buffer) was added to the wells, incubated for 4 hours at 37° C. and 5% CO2 before RFU's (Relative Fluorescence Units) (ex. 540 nm., em. 590 nm.) were measured in a fluororescence plate reader.
As a counterscreen the same experiment was performed in the presence of 10 ng/ml murine IL3.

[4] abbreviates: average values if tested multiple times.
[5] abbreviates: plus IL3 (10 ng/ml murine IL3, counterscreen).

Chain of FGFR2 (h) (P21802 22-821): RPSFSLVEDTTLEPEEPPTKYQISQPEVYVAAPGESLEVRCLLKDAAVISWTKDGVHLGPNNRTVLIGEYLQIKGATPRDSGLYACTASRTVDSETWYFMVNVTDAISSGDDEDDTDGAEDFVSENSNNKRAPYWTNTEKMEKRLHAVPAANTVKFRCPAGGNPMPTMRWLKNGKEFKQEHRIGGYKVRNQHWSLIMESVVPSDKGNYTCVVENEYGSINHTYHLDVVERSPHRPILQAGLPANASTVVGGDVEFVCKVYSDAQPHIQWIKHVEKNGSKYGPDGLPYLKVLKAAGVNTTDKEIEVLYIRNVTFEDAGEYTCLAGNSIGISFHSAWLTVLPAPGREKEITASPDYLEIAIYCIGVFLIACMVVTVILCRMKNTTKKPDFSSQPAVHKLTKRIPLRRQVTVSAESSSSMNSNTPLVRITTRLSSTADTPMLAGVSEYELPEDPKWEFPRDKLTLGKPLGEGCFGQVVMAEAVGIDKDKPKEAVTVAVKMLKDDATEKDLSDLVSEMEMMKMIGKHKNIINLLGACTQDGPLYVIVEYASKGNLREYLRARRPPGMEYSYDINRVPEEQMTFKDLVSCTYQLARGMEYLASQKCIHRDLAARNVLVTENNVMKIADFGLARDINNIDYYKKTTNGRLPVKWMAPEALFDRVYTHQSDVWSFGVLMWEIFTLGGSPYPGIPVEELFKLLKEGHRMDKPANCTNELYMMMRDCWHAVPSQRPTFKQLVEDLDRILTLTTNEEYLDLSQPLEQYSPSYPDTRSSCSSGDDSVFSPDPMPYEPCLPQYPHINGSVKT

Take `COc1cc(OC)c(F)c(N(Cc2cnccn2)c2ccc3ncc(-c4cnn(C)c4)nc3n2)c1F` [Compound 10]: the IC50 on FGFR2 (h) (setting [4]) is 35.5 nM; in data set [1] (setting [5]), above 10000 nM; in data set [3] (setting [5]) it was above 10000 nM. The “BAF3-KDR (MIN IL3) pIC50” value in data set [2] is recorded as 6.2.

On to `CNCCn1/c(=N/c2cc(OC)cc(OC)c2F)ccc2ncc(-c3cnn(C)c3)nc21` [Compound 38], for which the IC50 at FGFR2 (h) (setting [4]) was 4.57 nM; in data set [1] (setting [5]), above 10000 nM; in data set [3] (setting [5]), above 10000 nM. The “BAF3-KDR (MIN IL3) pIC50” value in data set [2] was 5.13.

On to `COc1cc(OC)c(F)c(N(CCCO)c2ccc3ncc(-c4cnn(C)c4)nc3n2)c1F` (single isomer, unassigned) [Compound 16], for which the melting point was 208 °C. At FGFR2 (h) (setting [4]), the IC50 is 15.8 nM. In addition, the IC50 in data set [1] (setting [5]) is above 10000 nM. Moreover, in data set [2], the “BAF3-KDR (MIN IL3) pIC50” value was found to be 6.2. Besides, in data set [3] (setting [5]), the IC50 was above 10000 nM.

Take `Cn1cc(-c2cnc3ccc(N(Cc4ncc[nH]4)c4cc(F)cc(F)c4)nc3n2)cn1` [Compound 27]: the IC50 is 6.61 nM on FGFR2 (h) (setting [4]), above 10000 nM in data set [1] (setting [5]) and above 10000 nM in data set [3] (setting [5]). The “BAF3-KDR (MIN IL3) pIC50” value in data set [2] is below 5.

For `COc1cc(OC)c(F)c(N(CCO)c2ccc3ncc(-c4cnn(C)c4)nc3n2)c1F` [Compound 20], the IC50 was 126 nM at FGFR2 (h) (setting [4]), above 10000 nM in data set [1] (setting [5]) and above 10000 nM in data set [3] (setting [5]). In addition, in data set [2], the “BAF3-KDR (MIN IL3) pIC50” value is reported as 6.53.

`COCC(O)CN(c1cc(OC)cc(OC)c1)c1ccc2ncc(-c3cnn(C)c3)nc2n1` (stereo not drawn) [Compound 7] came in with a melting point of 65 °C. For the same molecule, at FGFR2 (h) (setting [4]), the IC50 is 3.98 nM. In addition, in data set [1] (setting [5]), the IC50 is above 10000 nM. For the same molecule, the “BAF3-KDR (MIN IL3) pIC50” value in data set [2] is listed as 5.1. Besides, in data set [3] (setting [5]), the IC50 was above 10000 nM.

Take `COc1cc(OC)cc(N(CC#Cc2ncccc2OC)c2ccc3ncc(-c4cnn(C)c4)nc3n2)c1` [Compound 26]: the melting point is 190 °C. Besides, the IC50 on FGFR2 (h) (setting [4]) was 63.1 nM. In addition, the IC50 in data set [1] (setting [5]) is above 10000 nM. Moreover, the “BAF3-KDR (MIN IL3) pIC50” value in data set [2] is given as below 5. Moreover, the IC50 in data set [3] (setting [5]) is above 10000 nM.

The molecule `COc1cc(OC)c(F)c(N(Cc2ncccn2)c2ccc3ncc(-c4cnn(C)c4)nc3n2)c1` [Compound 9] registered a melting point of 227 °C. In addition, the IC50 at FGFR2 (h) (setting [4]) was 12.6 nM. The IC50 in data set [1] was above 10000 nM. The “BAF3-KDR (MIN IL3) pIC50” value in data set [2] was determined as 5.95. Also, the IC50 in data set [3] was above 10000 nM.

The molecule `COc1cc(OC)c(F)c(N(CC2COC(=O)N2)c2ccc3ncc(-c4cnn(C)c4)nc3n2)c1` (single isomer, unassigned) [Compound 111] returned a melting point of 202 °C. Moreover, at FGFR2 (h) (setting [4]), the IC50 is 2 nM. In data set [1] (setting [5]), the IC50 is above 10000 nM. The “BAF3-KDR (MIN IL3) pIC50” value in data set [2] stood at 5.61.

Consider `COc1cc(/N=c2\ccc3ncc(-c4cnn(C)c4)nc3n2CC(O)COC(C)C)c(F)c(OC)c1` (single isomer, unassigned) [Compound 77], for which the melting point lay in the range of 96 to 97 °C. Also, the IC50 at FGFR2 (h) (setting [4]) was 3.16 nM. Further, the IC50 in data set [1] (setting [5]) is above 10000 nM. Further, the “BAF3-KDR (MIN IL3) pIC50” value in data set [2] is listed as 5.33.

For `CNCCN(c1ccc2ncc(-c3cnn(C)c3)nc2n1)c1cc(OC)cc(OC)c1F` [Compound 39], the IC50 at FGFR2 (h) (setting [4]) is 5.37 nM; in data set [1], above 10000 nM; in data set [3], above 10000 nM. Besides, the “BAF3-KDR (MIN IL3) pIC50” value in data set [2] was around 6.19.

Take `COc1cc(OC)c(F)c(N(Cc2cn(S(=O)(=O)N(C)C)cn2)c2ccc3ncc(-c4cnn(C)c4)nc3n2)c1` [Compound 36]: the IC50 on FGFR2 (h) (setting [4]) is 3.98 nM; in data set [1] (setting [5]) it was above 10000 nM; in data set [3] (setting [5]) it was above 10000 nM. Further, the “BAF3-KDR (MIN IL3) pIC50” value in data set [2] is 5.67.

As to `COc1ccc(Cl)c(/N=c2\ccc3ncc(-c4cnn(C)c4)nc3n2CC2CCC(=O)N2)c1Cl` (single isomer, unassigned) [Compound 89], the melting point stood at 183 °C. For the same molecule, the IC50 at FGFR2 (h) (setting [4]) is 70.8 nM. In addition, the IC50 in data set [1] (setting [5]) is above 10000 nM. The “BAF3-KDR (MIN IL3) pIC50” value in data set [2] is recorded as below 5.

Turning to `COc1cc(/N=c2\ccc3ncc(-c4cnn(C)c4)nc3n2CC2CCC(=O)N2)c(F)c(OC)c1` (stereo not drawn) [Compound 45], the melting point amounted to 127 °C. Further, the IC50 at FGFR2 (h) (setting [4]) is 1.91 nM. Further, in data set [1] (setting [5]), the IC50 is above 10000 nM. For the same molecule, the “BAF3-KDR (MIN IL3) pIC50” value in data set [2] is around 5.96.

`CNCCN(c1ccc2ncc(-c3cnn(C)c3)nc2n1)c1c(F)c(OC)cc(OC)c1F` [Compound 3] showed a melting point of 159 °C. The IC50 on FGFR2 (h) (setting [4]) is 3.09 nM. The IC50 in data set [1] (setting [5]) is above 10000 nM. Further, the “BAF3-KDR (MIN IL3) pIC50” value in data set [2] turned out to be 6.48.

In turn, `COc1cc(O)cc(N(Cc2ncc[nH]2)c2ccc3ncc(-c4cnn(C)c4)nc3n2)c1F` [Compound 95] displayed a melting point of 218 °C. For the same molecule, the IC50 on FGFR2 (h) (setting [4]) was 0.955 nM. The IC50 in data set [1] (setting [5]) was above 9330 nM. Besides, the “BAF3-KDR (MIN IL3) pIC50” value in data set [2] amounted to 6.85.

`COCC(O)CN(c1ccc2ncc(-c3cnn(C)c3)nc2n1)c1cc(OC)cc(OC)c1F` (single isomer, unassigned) [Compound 58] registered a melting point of 94 to 95 °C. Also, the IC50 at FGFR2 (h) (setting [4]) is 1.95 nM. Besides, the IC50 in data set [1] (setting [5]) is above 10000 nM. Moreover, the “BAF3-KDR (MIN IL3) pIC50” value in data set [2] turned out to be 5.97.

As to `COc1cc(OC)cc(N(Cc2nc[nH]n2)c2ccc3ncc(-c4cnn(C)c4)nc3n2)c1` [Compound 71], the melting point was determined as 238 °C. On FGFR2 (h) (setting [4]), the IC50 was 1.55 nM. Further, in data set [1], the IC50 is above 10000 nM. Also, the “BAF3-KDR (MIN IL3) pIC50” value in data set [2] is recorded as 6.03.

Regarding `COc1cc(/N=c2\ccc3ncc(-c4cnn(C)c4)nc3n2CCNC(C)C)c(F)c(OC)c1` [Compound 37], the IC50 at FGFR2 (h) (setting [4]) was 4.47 nM; in data set [1] (setting [5]) it was above 10000 nM; in data set [3] (setting [5]), above 10000 nM. Besides, in data set [2], the “BAF3-KDR (MIN IL3) pIC50” value is 6.11.

The molecule `COc1cc(OC)c(F)c(N(CCNC(C)C)c2ccc3ncc(-c4cnn(C)c4)nc3n2)c1F` [Compound 5] yielded a melting point of 183 °C. Moreover, the IC50 on FGFR2 (h) (setting [4]) was 3.98 nM. For the same molecule, in data set [1] (setting [5]), the IC50 is above 10000 nM. Besides, the “BAF3-KDR (MIN IL3) pIC50” value in data set [2] came to 6.35. Further, the IC50 in data set [3] (setting [5]) is above 10000 nM.

Regarding `COc1cc(OC)c(F)c(N(Cc2nn[nH]n2)c2ccc3ncc(-c4cnn(C)c4)nc3n2)c1` [Compound 140], the melting point was found to be 149 °C. Further, at FGFR2 (h), the IC50 was 4.47 nM. Besides, the IC50 in data set [1] (setting [5]) was above 10000 nM. Also, in data set [2], the “BAF3-KDR (MIN IL3) pIC50” value is recorded as below 5.

Turning to `COc1cc(OC)c(F)c(N(c2ccc3ncc(-c4cnn(C)c4)nc3n2)C(CO)COC(C)C)c1` (single isomer, unassigned) [Compound 76], the melting point was in the range of 137 to 138 °C. At FGFR2 (h) (setting [4]), the IC50 was 468 nM. Besides, the IC50 in data set [1] (setting [5]) was above 10000 nM. The “BAF3-KDR (MIN IL3) pIC50” value in data set [2] was below 5.
